Consider four molecules from patent US4971968A, “Pyridazinone derivatives and salts thereof” (Mitsubishi Kasei Corporation, priority 1983, dated 1990).

The test system of data set [1] is left atrium of guinea pig. The data set is described as follows: Effect on contraction of an isolated left atrium of the guinea pig. The conditions noted are these: Cavia porcellus, read-out: Contraction of left atrium of guinea pig, increase; for activation at 30 µg/mL: 3 × 10^-5 g/ml; for activation at 10 µg/mL: 10^-5 g/ml. Here is the method: 2. Effect on contraction of an isolated left atrium of the guinea pig
A left atrium was isolated from a male guinea pig with 200-300 g of body weight soon after striking on the back of its head. The mitral orifice was fixed to the bottom of an organ bath filled with 30 ml of Krebs-Henseleit solution maintained at 35° C. A gas mixture comprising 95% of O2 and 5% of CO2 was passed through the Krebs-Henseleit solution in the organ bath. Isometric tension was measured by connecting a left auricle of heart and a transducer by a yarn. A resting tension of 0.5 g was given to the atrium, which was then electrically driven with square pulses with duration of 1 msec and voltage of 1.5 times as much as threshold in the rate of 2 Hz via dipolar platinum electrodes.
After stabilizing the atrium for 30 minutes from its preparation, the compound dissolved in a solvent was added to the organ bath to measure its effect.

In the next data set the test system is papillary muscle of dog. The data set is described as follows: Effect on contraction of an isolated and cross-circulated papillary muscle preparation of the dog. Particulars: Canis lupus familiaris, read-out: Contraction of papillary muscle of dog, increase; for activation at 0.03 mg: 30 μg i.a.; for activation at 0.01 mg: 10 μg i.a. Here is the method:
1. Effect on contraction of an isolated and cross-circulated papillary muscle preparation of the dog
An isolated and cross-circulated papillary muscle preparation of the dog was prepared by Endo and Hashimoto's method (referred to American Journal of Physiology, 218, 1459-1463, 1970). The effect of the compound was measured by closely intraarterially injecting the compound dissolved in a solvent to the papillary muscle for the purpose of recording its effect on contraction of papillary muscle.

The next data set deals with Anesthetized dog. The data set can be described thus: Effects on myocardial contraction in anesthetized dogs. It counts as in vivo, dog (male and female mongrel dogs). Particulars: for Anesthetized dog, CO (cardiac output) increase: aortic blood flow as index. The procedure: 3. Effects on myocardial contraction in anesthetized dogs
Male and female mongrel dogs with body weight of 8-15 kg were used. A dog was anesthetized by intraveneous injection of 30 mg/kg of sodium pentobarbital and practiced artificial respiration. The dog was thoractomized between fourth and fifth costa which was cut off. The pericardium was incised to expose heart. Blood flow through the aorta, which was measured with an electromagnetic blood flowmeter whose probe was attached to the ascending aorta, was used as an approximate index of cardiac output (CO). Left ventricular pressure (LVP) was measured with a Miller Catheter-tip pressure transducer and the first derivative of the LVP (dP/dt) was measured with a differentiater. Contraction of right ventricular muscle (Cont) was determined with a strain-gauge attached to the wall. Systemic blood pressure was measured from the left femoral artery. Heart rate was measured with electrocardiogram (lead II) and a cardiotachometer. The compound dissolved in a solvent was administered intravenously from a left femoral vein.

Data set [2] can be described thus: Acute toxicity (LD50) for intravenous and oral administration in male mice. The conditions noted are these: mouse, in vivo. The procedure:
Acute toxicity (LD50) for intravenous and oral administration in male mice was determined by the method of […] and Wilcoxon (referred to Journal of Pharmacology and Experimental Therapeutics, 96, 99-113, 1949).

For `O=C1CCC(c2ccc(Nc3ncccn3)cc2)=NN1` [6-[4-(2'-pyrimidinyl)aminophenyl]-4,5-dihydro-3(2H)-pyridazinone], in data set [1], the activation at 30 µg/mL was 66% and the activation at 10 µg/mL was found to be 42%. Further, in the data set with papillary muscle of dog, the activation at 0.03 mg came to 5.7%. In addition, the activation at 0.1 mg in the data set with papillary muscle of dog (100 μg i.a.) stood at 15.9%.

Take `O=C1CCC(c2ccc(Nc3ccncc3)cc2)=NN1` [6-[4-(4'-pyridyl)aminophenyl]-4,5-dihydro-3(2H)-pyridazinone]: in the data set on Anesthetized dog (10 μg/kg i.v.), the “Anesthetized dog, Cont (contraction of right ventricular muscle) increase” value turned out to be 23%; the “Anesthetized dog, dP/dt max increase” value was found to be 45%; the “Anesthetized dog, CO (cardiac output) increase” value is given as 13%. Also, in the data set on Anesthetized dog (30 μg/kg i.v.), the “Anesthetized dog, Cont (contraction of right ventricular muscle) increase” value came to 57%; the “Anesthetized dog, dP/dt max increase” value was 93%; the “Anesthetized dog, CO (cardiac output) increase” value came out at 28%. Also, in data set [1], the activation at 30 µg/mL came out at 138% and the activation at 10 µg/mL is 115%. Further, in the data set with papillary muscle of dog, the activation at 0.01 mg is 13.2% and the activation at 0.03 mg came to 15.4%. The same molecule displayed an LD50 in data set [2] (iv) of 97 mg/kg. Also, in data set [2] (po), the LD50 was determined as 341 mg/kg.

Consider `CC1CC(c2ccc(Nc3ccncc3)cc2)=NNC1=O` (stereo not drawn) [6-[4-(4'-pyridyl)aminophenyl]-4-methyl-4,5-dihydro-3(2H)pyridazinone], for which, in the data set with Anesthetized dog (30 μg/kg i.v.), the “Anesthetized dog, Cont (contraction of right ventricular muscle) increase” value worked out at 21.6%; the “Anesthetized dog, dP/dt max increase” value is on record as 29.1%; the “Anesthetized dog, CO (cardiac output) increase” value turned out to be 8.6%. Further, in the data set with Anesthetized dog (100 μg/kg i.v.), the “Anesthetized dog, Cont (contraction of right ventricular muscle) increase” value is listed as 64.0%; the “Anesthetized dog, dP/dt max increase” value turned out to be 64.7%; the “Anesthetized dog, CO (cardiac output) increase” value is 26.7%. In data set [1], the activation at 30 µg/mL was 109% and the activation at 10 µg/mL turned out to be 85.9%. In the data set with papillary muscle of dog, the activation at 0.01 mg was 22.6% and the activation at 0.03 mg was 50%.

Consider `CC1CC(=O)NN=C1c1ccc(Nc2ccncc2)cc1` (stereo not drawn) [6-[4-(4'-pyridyl)aminophenyl]-5-methyl-4,5-dihydro-3(2H)pyridazinone], for which, in the data set with Anesthetized dog (3 μg/kg i.v.), the “Anesthetized dog, Cont (contraction of right ventricular muscle) increase” value came out at 13.3%; the “Anesthetized dog, dP/dt max increase” value is 14.4%; the “Anesthetized dog, CO (cardiac output) increase” value is on record as 14.4%. In the data set on Anesthetized dog (10 μg/kg i.v.), the “Anesthetized dog, Cont (contraction of right ventricular muscle) increase” value worked out at 75.9%; the “Anesthetized dog, dP/dt max increase” value is 73.8%; the “Anesthetized dog, CO (cardiac output) increase” value is 26.7%. In data set [1], the activation at 30 µg/mL was found to be 97.9% and the activation at 10 µg/mL was 86.6%. The activation at 0.003 mg in the data set with papillary muscle of dog (3 μg i.a.) came out at 28.6%. Moreover, the activation at 0.01 mg in the data set with papillary muscle of dog was determined as 38.7%.
